Laboratory results from BindingDB's records for doi:10.1021/jm001055e (Friedrich-Alexander University, 2001).

Target: T1, D(4) dopamine receptor (Homo sapiens, UniProt P21917)
T1 sequence (P21917 whole entry): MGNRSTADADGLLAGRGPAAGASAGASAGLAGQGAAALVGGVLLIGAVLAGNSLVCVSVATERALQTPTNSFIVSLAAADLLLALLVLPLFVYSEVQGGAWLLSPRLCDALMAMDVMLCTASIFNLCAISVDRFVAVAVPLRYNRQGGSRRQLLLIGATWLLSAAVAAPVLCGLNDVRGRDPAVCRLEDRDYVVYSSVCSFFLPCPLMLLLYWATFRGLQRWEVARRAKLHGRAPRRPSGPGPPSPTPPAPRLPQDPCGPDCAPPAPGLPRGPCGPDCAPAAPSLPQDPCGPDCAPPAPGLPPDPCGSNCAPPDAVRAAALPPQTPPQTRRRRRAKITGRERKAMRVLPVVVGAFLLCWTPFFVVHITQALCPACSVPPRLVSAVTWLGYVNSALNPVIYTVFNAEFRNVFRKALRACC
Test: Ability to displace [3H]spiperone from dopamine receptor D4.4 expressed in CHO-K1 cells

## Clc1ccc(N2CCN(Cc3cc4ccccc4[nH]3)CC2)cc1
  Ki: 18.2 nM

## Clc1ccc(N2CCN(Cc3ccc[nH]3)CC2)cc1
  Ki: 26.3 nM

## FC(F)(F)c1cccc(N2CCN(Cc3cnn4ccccc34)CC2)c1
  Ki: 1.91 nM

## CCN1CCN(Cc2cnn3ccccc23)CC1
  Ki: 23900 nM

## C#Cc1cccc2c(CN3CCN(c4ccc(Cl)cc4)CC3)cnn12 [3-[4-(4-Chloro-phenyl)-piperazin-1-ylmethyl]-7-ethynyl-pyrazolo[1,5-a]pyridine]
  Ki: 1.23 nM

## N#CC(C#N)=Cc1ccc(CN2CCN(c3ccc(Cl)cc3)CC2)[nH]1 [4-(4-Chloro-phenyl)-1-[5-(2,2-dicyano-vinyl)-1H-pyrrol-2-ylmethyl]-piperazin-1-ium]
  Ki: 9.55 nM

## OCc1ccc2c(CN3CCN(c4ccccc4)CC3)cnn2c1
  Ki: 19.5 nM

## Clc1ccc(N2CCN(Cc3cc[nH]c3)CC2)cc1
  Ki: 38.9 nM

## Clc1ccc(N2CCN(Cc3cnn4ccccc34)CC2)cc1Cl
  Ki: 5.62 nM

## Clc1ccc(N2CCN(Cc3cnn4c(I)cccc34)CC2)cc1
  Ki: 5.01 nM

## Cc1cccn2ncc(CN3CCN(c4ccc(Cl)cc4)CC3)c12 [3-[4-(4-Chloro-phenyl)-piperazin-1-ylmethyl]-4-methyl-pyrazolo[1,5-a]pyridine]
  Ki: 50.1 nM

## Fc1ccc(N2CCN(Cc3cnn4ccccc34)CC2)cc1
  Ki: 20 nM

## Clc1cccc(N2CCN(Cc3cnn4ccc5ccccc5c34)CC2)c1
  Ki: 794 nM

## Clc1cccc(N2CCN(Cc3cnn4c3ccc3ccccc34)CC2)c1
  Ki: 218 nM

## C#Cc1ccc(N2CCN(Cc3cnn4ccccc34)CC2)cc1
  Ki: 4.37 nM

## Clc1ccc(N2CCN(Cc3cc4ccccn4n3)CC2)cc1 [4-(4-Chloro-phenyl)-1-pyrazolo[1,5-a]pyridin-2-ylmethyl-piperazin-1-ium]
  Ki: 2.19 nM

## Clc1ccc(N2CCN(Cc3ccccc3)CC2)cc1
  Ki: 251 nM

## Cc1cccc2c(CN3CCN(c4ccc(Cl)cc4)CC3)cnn12 [4-(4-Chloro-phenyl)-1-(7-methyl-pyrazolo[1,5-a]pyridin-3-ylmethyl)-piperazin-1-ium]
  Ki: 2.69 nM
